Measured values taken from ChEMBL document CHEMBL4428135, “Varying Chirality Across Nicotinic Acetylcholine Receptor Subtypes: Selective Binding of Quinuclidine Triazole Compounds” (ACS Med Chem Lett, 2016).
pKi: −log10 of the molar value. Calls of active or inactive are those of the source. The calls are words filed in the database; no cut-off is given here.

What was measured:
[1] = molecular target: T1, Neuronal acetylcholine receptor; alpha4/beta2 (Homo sapiens, UniProt P17787+P43681); assay: Displacement of [3H]epibatidine from human alpha4beta2 nAChR transfected in HEK293 cell membranes after 120 mins by liquid scintillation counting
T1 sequence (P17787 whole entry): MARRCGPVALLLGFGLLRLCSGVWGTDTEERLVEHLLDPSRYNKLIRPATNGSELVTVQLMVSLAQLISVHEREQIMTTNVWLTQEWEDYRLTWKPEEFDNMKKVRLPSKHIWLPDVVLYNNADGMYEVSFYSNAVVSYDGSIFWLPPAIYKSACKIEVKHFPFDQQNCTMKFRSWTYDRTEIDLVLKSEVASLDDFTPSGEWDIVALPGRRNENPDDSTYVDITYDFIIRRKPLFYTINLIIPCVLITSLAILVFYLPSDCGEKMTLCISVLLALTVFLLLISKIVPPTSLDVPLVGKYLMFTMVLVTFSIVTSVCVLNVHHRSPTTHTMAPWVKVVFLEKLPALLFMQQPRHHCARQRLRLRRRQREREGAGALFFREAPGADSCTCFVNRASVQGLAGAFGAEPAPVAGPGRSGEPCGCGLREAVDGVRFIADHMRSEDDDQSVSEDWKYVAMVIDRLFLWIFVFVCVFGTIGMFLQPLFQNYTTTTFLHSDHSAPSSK
T1 sequence (P43681 whole entry): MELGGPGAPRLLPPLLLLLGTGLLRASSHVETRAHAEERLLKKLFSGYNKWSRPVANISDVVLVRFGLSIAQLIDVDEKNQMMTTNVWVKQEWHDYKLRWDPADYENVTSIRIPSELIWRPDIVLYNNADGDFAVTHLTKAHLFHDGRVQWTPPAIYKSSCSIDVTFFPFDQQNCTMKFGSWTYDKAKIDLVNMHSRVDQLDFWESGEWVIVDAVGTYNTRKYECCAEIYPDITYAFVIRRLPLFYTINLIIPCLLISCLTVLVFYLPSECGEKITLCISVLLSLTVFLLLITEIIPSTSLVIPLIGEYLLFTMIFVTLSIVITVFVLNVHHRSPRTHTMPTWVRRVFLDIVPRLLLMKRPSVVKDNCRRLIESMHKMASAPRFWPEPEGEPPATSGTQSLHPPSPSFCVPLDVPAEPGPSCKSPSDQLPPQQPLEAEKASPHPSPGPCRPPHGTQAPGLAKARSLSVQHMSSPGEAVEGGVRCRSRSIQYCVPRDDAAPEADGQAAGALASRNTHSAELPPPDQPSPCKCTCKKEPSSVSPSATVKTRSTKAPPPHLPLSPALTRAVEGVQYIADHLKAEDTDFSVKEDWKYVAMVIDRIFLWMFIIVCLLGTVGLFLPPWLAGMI

[2] = molecular target: T2, Neuronal acetylcholine receptor subunit alpha-7 (Homo sapiens, UniProt P36544); assay: Displacement of [3H]MLA from human alpha7 nAChR transfected in human SH-SY5Y cell membranes after 120 mins by liquid scintillation counting
T2 sequence (P36544 whole entry): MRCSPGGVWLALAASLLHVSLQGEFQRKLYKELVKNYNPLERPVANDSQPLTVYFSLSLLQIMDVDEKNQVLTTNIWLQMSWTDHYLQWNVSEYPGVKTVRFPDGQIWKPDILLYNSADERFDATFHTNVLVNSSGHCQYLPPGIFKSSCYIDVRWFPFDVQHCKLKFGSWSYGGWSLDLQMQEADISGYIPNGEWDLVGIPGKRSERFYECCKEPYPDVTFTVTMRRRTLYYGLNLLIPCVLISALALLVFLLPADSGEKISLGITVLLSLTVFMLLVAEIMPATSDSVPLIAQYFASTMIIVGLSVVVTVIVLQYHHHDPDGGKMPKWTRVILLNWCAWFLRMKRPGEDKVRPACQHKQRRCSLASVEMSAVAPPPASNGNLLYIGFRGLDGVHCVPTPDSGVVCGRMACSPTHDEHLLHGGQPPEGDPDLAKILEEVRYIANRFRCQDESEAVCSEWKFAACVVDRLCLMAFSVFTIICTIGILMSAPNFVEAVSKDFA

[3] = molecular target: T3, Neuronal acetylcholine receptor; alpha3/beta4 (Homo sapiens, UniProt P30926+P32297); assay: Displacement of [3H]epibatidine from human alpha3beta4 nAChR transfected in HEK293 cell membranes after 120 mins by liquid scintillation counting
T3 sequence (P30926 whole entry): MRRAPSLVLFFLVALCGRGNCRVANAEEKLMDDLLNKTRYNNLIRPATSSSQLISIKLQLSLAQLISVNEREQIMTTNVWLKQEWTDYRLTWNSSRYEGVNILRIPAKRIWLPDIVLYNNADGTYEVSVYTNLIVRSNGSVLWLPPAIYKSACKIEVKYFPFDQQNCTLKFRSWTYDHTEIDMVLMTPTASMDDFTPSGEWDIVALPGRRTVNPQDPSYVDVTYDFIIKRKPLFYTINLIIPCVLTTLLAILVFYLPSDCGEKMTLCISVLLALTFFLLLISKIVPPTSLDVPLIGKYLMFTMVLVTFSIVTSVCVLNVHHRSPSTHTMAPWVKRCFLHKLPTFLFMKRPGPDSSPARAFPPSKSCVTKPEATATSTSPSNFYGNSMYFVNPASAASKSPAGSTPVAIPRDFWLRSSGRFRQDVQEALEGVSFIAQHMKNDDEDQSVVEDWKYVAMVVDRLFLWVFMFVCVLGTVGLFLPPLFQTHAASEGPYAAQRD
T3 sequence (P32297 whole entry): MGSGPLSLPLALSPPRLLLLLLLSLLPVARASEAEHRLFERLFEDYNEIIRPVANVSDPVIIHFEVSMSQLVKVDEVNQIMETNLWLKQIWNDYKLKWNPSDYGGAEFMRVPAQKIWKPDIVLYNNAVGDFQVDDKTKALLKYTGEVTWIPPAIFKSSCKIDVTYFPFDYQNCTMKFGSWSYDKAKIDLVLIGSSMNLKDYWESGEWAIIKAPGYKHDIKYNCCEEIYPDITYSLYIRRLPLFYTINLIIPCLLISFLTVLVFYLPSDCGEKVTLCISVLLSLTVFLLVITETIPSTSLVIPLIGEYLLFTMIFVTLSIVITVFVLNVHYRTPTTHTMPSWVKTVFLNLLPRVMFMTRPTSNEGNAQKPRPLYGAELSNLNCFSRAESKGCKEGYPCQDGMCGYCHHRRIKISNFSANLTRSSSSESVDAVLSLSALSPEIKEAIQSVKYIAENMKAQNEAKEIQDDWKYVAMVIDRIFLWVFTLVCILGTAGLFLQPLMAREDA

Homo sapiens [4] = species: Homo sapiens; assay: Selectivity index, reciprocal of ratio of Ki for human alpha3beta4 nAChR transfected in HEK293 cells to Ki for human alpha4beta2 nAChR transfected in HEK293 cells; format: cell-based
Homo sapiens [5] = species: Homo sapiens; assay: Selectivity index, reciprocal of ratio of Ki for alpha7 nAChR transfected in human SH-SY5Y cells to KI for human alpha4beta2 nAChR transfected in HEK293 cells; format: cell-based
[6] = molecular target: T1, Neuronal acetylcholine receptor; alpha4/beta2; assay: Binding affinity to alpha4beta2 nAChR (unknown origin); format: protein-complex assay
[7] = molecular target: T2, Neuronal acetylcholine receptor subunit alpha-7; assay: Binding affinity to alpha7 nAChR (unknown origin)
Homo sapiens [8] = species: Homo sapiens; assay: Selectivity index, reciprocal of ratio of Ki for human alpha7 nAChR transfected in human SH-SY5Y cells to Ki for human alpha3beta4 nAChR transfected in HEK293 cells; format: cell-based
[9] = molecular target: Neuronal acetylcholine receptor subunit alpha-7 (Rattus norvegicus, UniProt Q05941); assay: Displacement of [3H]MLA from alpha7 nAChR in rat brain membranes after 2 hrs; format: cell membranes
Neuronal acetylcholine receptor subunit alpha-7 (Rattus norvegicus, UniProt Q05941), sequence (Q05941 whole entry): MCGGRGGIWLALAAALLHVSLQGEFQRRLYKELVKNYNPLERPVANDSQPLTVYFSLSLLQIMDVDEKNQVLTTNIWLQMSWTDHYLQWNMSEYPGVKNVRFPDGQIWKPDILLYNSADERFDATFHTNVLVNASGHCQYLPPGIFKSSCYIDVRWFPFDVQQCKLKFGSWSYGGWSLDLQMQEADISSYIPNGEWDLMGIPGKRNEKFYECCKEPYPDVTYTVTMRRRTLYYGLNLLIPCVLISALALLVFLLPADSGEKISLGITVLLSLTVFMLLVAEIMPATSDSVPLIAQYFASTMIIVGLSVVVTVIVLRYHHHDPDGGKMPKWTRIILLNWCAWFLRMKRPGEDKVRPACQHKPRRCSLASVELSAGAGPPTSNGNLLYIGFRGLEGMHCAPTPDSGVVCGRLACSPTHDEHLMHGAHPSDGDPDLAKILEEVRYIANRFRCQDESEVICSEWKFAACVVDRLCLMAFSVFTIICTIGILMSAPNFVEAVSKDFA

[10] = molecular target: T3, Neuronal acetylcholine receptor; alpha3/beta4; assay: Antagonist activity at human alpha3beta4 nAChR expressed in HEK293 cells assessed as rediution in epibatidine-induced intracellular calcium levels at 10 uM; format: cell-based
[11] = molecular target: T2, Neuronal acetylcholine receptor subunit alpha-7; assay: Agonist activity at human alpha7 nAChR expressed in human SH-SY5Y cells assessed as increase in intracellular calcium levels at 10 uM; format: cell-based
[12] = molecular target: Acetylcholine receptor subunit alpha (Homo sapiens) (UniProt P02708); assay: Displacement of [125I]alpha-bungarotoxin from human N-muscle type nAChR alpha1 expressed in human RD cells at 1 uM; format: cell-based
Acetylcholine receptor subunit alpha (Homo sapiens), sequence (P02708 whole entry): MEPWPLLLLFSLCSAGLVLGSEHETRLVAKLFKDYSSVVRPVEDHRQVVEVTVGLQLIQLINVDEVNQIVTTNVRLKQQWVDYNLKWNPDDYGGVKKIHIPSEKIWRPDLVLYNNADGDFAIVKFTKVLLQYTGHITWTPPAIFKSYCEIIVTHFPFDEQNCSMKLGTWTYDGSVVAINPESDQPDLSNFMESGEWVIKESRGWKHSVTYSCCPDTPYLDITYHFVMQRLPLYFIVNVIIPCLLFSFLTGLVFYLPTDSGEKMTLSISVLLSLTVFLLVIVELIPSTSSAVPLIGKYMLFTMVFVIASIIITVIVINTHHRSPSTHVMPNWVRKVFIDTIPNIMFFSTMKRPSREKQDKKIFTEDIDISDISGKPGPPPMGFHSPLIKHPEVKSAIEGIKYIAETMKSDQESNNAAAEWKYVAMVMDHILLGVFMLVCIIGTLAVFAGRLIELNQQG

[13] = molecular target: Serotonin 3 (5-HT3) receptor (Homo sapiens) (UniProt P46098+A5X5Y0+O95264+Q70Z44+Q8WXA8); assay: Displacement of [3H]BRL-43694 from human recombinant 5-HT3 receptor expressed in CHO cells at 100 nM; format: cell-based
[14] = molecular target: T2, Neuronal acetylcholine receptor subunit alpha-7; assay: Displacement of [3H]A-585539 from alpha7 nAChR in human cerebral cortex membranes after 75 mins by scintillation counting; format: cell membranes
[15] = molecular target: Neuronal acetylcholine receptor; alpha4/beta2 (Rattus norvegicus, UniProt P09483+P12390); assay: Displacement of [3H]cytisine from alpha4beta2 nAChR in Sprague-Dawley rat brain membranes after 75 mins by scintillation counting; format: cell membranes
Neuronal acetylcholine receptor; alpha4/beta2 (Rattus norvegicus, UniProt P09483+P12390), sequence (P09483 whole entry): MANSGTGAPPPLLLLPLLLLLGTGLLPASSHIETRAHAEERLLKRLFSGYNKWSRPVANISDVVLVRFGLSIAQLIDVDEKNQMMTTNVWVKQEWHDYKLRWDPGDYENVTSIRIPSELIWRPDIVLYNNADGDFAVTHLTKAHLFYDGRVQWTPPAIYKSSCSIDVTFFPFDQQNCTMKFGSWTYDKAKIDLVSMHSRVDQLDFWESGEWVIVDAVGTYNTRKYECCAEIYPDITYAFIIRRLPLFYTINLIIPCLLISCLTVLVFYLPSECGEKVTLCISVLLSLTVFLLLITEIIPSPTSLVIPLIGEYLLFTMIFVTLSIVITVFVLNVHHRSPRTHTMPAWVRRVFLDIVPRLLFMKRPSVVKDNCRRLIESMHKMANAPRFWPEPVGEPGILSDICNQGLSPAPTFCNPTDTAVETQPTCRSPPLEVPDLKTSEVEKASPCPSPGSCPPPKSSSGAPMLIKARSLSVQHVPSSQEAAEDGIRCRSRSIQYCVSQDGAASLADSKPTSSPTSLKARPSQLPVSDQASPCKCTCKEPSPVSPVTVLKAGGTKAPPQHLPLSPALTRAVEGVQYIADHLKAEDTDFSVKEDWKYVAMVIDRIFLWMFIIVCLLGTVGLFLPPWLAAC
Neuronal acetylcholine receptor; alpha4/beta2 (Rattus norvegicus, UniProt P09483+P12390), sequence (P12390 whole entry): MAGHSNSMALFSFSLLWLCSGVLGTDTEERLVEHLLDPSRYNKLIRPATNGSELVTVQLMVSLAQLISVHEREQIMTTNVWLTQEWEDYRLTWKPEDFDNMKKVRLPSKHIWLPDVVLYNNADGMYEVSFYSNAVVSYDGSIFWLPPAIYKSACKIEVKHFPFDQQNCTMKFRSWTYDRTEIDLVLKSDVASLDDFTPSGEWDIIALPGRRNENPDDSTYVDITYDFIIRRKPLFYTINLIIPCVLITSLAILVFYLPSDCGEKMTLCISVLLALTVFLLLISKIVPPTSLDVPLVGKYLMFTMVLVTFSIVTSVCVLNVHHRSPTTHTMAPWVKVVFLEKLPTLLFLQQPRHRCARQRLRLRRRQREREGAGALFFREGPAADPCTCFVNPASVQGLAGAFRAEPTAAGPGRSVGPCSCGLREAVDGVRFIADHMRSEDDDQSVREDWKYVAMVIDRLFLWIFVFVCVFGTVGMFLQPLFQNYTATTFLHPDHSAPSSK

[16] = molecular target: T1, Neuronal acetylcholine receptor; alpha4/beta2; assay: Displacement of [3H]-(+/-)-epibatidine from human recombinant alpha4beta2 nAChR expressed in HEKtsA201 cells after 1 hr by CNiFERs binding assay; format: cell-based
[17] = molecular target: T2, Neuronal acetylcholine receptor subunit alpha-7; assay: Displacement of [3H]MLA from human recombinant alpha7 nAChR expressed in HEKtsA201 cells after 1 hr by CNiFERs binding assay; format: cell-based

Row | SMILES | pKi [1] | pKi [2] | pKi [3] | Ratio (Homo sapiens [4]) | Ratio (Homo sapiens [5]) | Ratio (Homo sapiens [8]) | further results
1 | Oc1ccc(-c2cn([C@@H]3CN4CCC3CC4)nn2)cc1 | 6.34 | 7.53 | 8.61 | 186 | 16 | – | –
2 | CN1C2CCCC1CC(Nc1ccccc1Br)C2 (stereo unspecified) | – | – | – | – | – | – | pKi [6]: 6.32; pKi [7]: 6.66
3 | FCCCOc1cccc(-c2cn([C@H]3CN4CCC3CC4)nn2)c1 | 5.05 | 7.21 | 5.79 | 5.5 | 145 | 26 | –
4 | c1ccc(COc2cccc(-c3cn([C@H]4CN5CCC4CC5)nn3)c2)cc1 | 5.30 | 7.65 | 6.20 | 8 | 225 | 28 | –
5 | O=C(N[C@H]1CN2CCC1CC2)c1c[nH]c2ccccc12 | – | – | – | – | – | – | pKi [9]: 8.22
6 | Fc1ccc(COc2cccc(-c3cn([C@H]4CN5CCC4CC5)nn3)c2)cc1 | 5.19 | 7.48 | 5.96 | 5.9 | 193 | 33 | –
7 | Oc1ccc(-c2cn([C@H]3CN4CCC3CC4)nn2)cc1 | 5.13 | 7.96 | 6.86 | 54 | 678 | 12.7 | –
8 | Fc1ccc(-c2cn([C@H]3CN4CCC3CC4)nn2)cc1 | 4.98 | 7.14 | 6.00 | 10 | 143 | 14 | inhibition [10]: Active; Activity [11]: Active
9 | c1ccc(COc2cccc(-c3cn([C@@H]4CN5CCC4CC5)nn3)c2)cc1 | 6.38 | 6.55 | 8.18 | 62 | 1.5 | – | inhibition [12]: 2 to 12%; inhibition [13]: inactive
10 | FCCOc1cccc(-c2cn(C3CN4CCC3CC4)nn2)c1 (racemic) | 5.71 | 7.01 | 7.68 | 94 | 20 | – | –
11 | c1cc2cc(-c3ccc(O[C@H]4CN5CCC4CC5)nn3)ccc2[nH]1 [ABT-107] | – | – | – | – | – | – | pKi [14]: 9.66; pKi [15]: 5.40
12 | Oc1ccc(-c2cn(C3CN4CCC3CC4)nn2)cc1 (racemic) | 6.20 | 8.02 | 8.46 | 182 | 65 | – | pKi [16]: < 5.00; pKi [17]: 7.09
